{
  "source": "patent US12448388B2",
  "about": "“PRMT5 inhibitors and uses thereof” (Gilead Sciences, Inc., priority 2023, dated 2025)",
  "data": [
    {"test_system": "HCT116 MTAP-deleted cell lines", "test": "Cell viability assay (CellTiter-Glo, 7 days), HCT116 MTAP-deleted", "assay_type": "cell-based", "settings": "Homo sapiens, HCT-116; cell viability, HCT116 MTAP-deleted; class symbols; read-out: CC50", "how_it_was_run": "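Luminescent ATP readout (CellTiter-Glo) after 7 days of continuous compound exposure gives the CC50 value. Cells were plated onto pre-dispensed DMSO dilution series of the PRMT5 inhibitors and kept at 37 °C in 5% CO2.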", "units": {"CC50": "µM"}, "values": [
      {"compound": "Nc1nc2cc(F)c(C(=O)N3CCO[C@@H]4Cc5cc(-c6cnn(C(F)F)c6)ccc5[C@@H]43)cc2n2cncc12", "note": "[Ff-235, (4-amino-7-fluoroimidazo[1,5-a]quinoxalin-8-yl)((4aS,9aR)-7-(1-(difluoromethyl)-1H-pyrazol-4-yl)-2,3,9,9a-tetrahydroindeno[2,1-b][1,4]oxazin-4(4aH)-yl)methanone]", "CC50": "< 0.1"},
      {"compound": "Nc1nc2cc(F)c(C(=O)N3CCO[C@@H]4Cc5cc(C6CC6)ccc5[C@@H]43)cc2n2cncc12", "note": "[Ff-236, (4-amino-7-fluoroimidazo[1,5-a]quinoxalin-8-yl)((4aS,9aR)-7-cyclopropyl-2,3,9,9a-tetrahydroindeno[2,1-b][1,4]oxazin-4(4aH)-yl)methanone]", "CC50": "0.1 to 1"},
      {"compound": "CN(C(=O)c1cc2c(cc1F)nc(N)c1cncn12)[C@@H]1COc2cc(-c3csc(C(F)F)n3)ccc21", "note": "[Ff-237, (S)-4-amino-N-(6-(2-(difluoromethyl)thiazol-4-yl)-2,3-dihydrobenzofuran-3-yl)-7-fluoro-N-methylimidazo[1,5-a]quinoxaline-8-carboxamide]", "CC50": "< 0.1"},
      {"compound": "CN(C(=O)c1cc2c(cc1F)nc(N)c1cncn12)[C@@H]1COc2cc(-c3ccc(C(F)(F)F)cn3)ccc21", "note": "[Ff-238, (S)-4-amino-7-fluoro-N-methyl-N-(6-(5-(trifluoromethyl)pyridin-2-yl)-2,3-dihydrobenzofuran-3-yl)imidazo[1,5-a]quinoxaline-8-carboxamide]", "CC50": "< 0.1"},
      {"compound": "Nc1nc2cc(F)c(C(=O)N3CCO[C@@H]4Cc5cc(-c6ccc(C(F)(F)F)nc6)ccc5[C@@H]43)cc2n2cncc12", "note": "[Ff-239, (4-amino-7-fluoroimidazo[1,5-a]quinoxalin-8-yl)((4aS,9aR)-7-(6-(trifluoromethyl)pyridin-3-yl)-2,3,9,9a-tetrahydroindeno[2,1-b][1,4]oxazin-4(4aH)-yl)methanone]", "CC50": "< 0.1"},
      {"compound": "Nc1nc2cc(F)c(C(=O)N3CCO[C@@H]4Cc5cc(-c6ccc(C(F)(F)F)cc6)ccc5[C@@H]43)cc2n2cncc12", "note": "[Ff-240, (4-amino-7-fluoroimidazo[1,5-a]quinoxalin-8-yl)((4aS,9aR)-7-(4-(trifluoromethyl)phenyl)-2,3,9,9a-tetrahydroindeno[2,1-b][1,4]oxazin-4(4aH)-yl)methanone]", "CC50": "0.1 to 1"},
      {"compound": "C[C@H]1CN(C(=O)c2ccc3nc(N)c4cncn4c3c2)[C@H]2c3cc(F)c(C(F)(F)F)cc3C[C@H]2O1", "note": "[Ff-246, (4-aminoimidazo[1,5-a]quinoxalin-8-yl)((2S,4aS,9aR)-6-fluoro-2-methyl-7-(trifluoromethyl)-2,3,9,9a-tetrahydroindeno[2,1-b][1,4]oxazin-4(4aH)-yl)methanone]", "CC50": "< 0.1"},
      {"compound": "C[C@H]1CN(C(=O)c2cc3c(cn2)nc(N)c2cncn23)[C@H]2c3cc(F)c(C(F)(F)F)cc3C[C@H]2O1", "note": "[Ff-247, (4-aminoimidazo[1,5-a]pyrido[3,4-e]pyrazin-8-yl)((2S,4aS,9aR)-6-fluoro-2-methyl-7-(trifluoromethyl)-2,3,9,9a-tetrahydroindeno[2,1-b][1,4]oxazin-4(4aH)-yl)methanone]", "CC50": "< 0.1"},
      {"compound": "C[C@@H]1C[C@@H]2Oc3cc(C(F)(F)F)c(F)cc3[C@@H]2N(C(=O)c2cc3c(cc2F)nc(N)c2cncn23)C1", "note": "[Ff-248, (4-amino-7-fluoroimidazo[1,5-a]quinoxalin-8-yl)((3R,4aS,9bS)-8-fluoro-3-methyl-7-(trifluoromethyl)-3,4,4a,9b-tetrahydrobenzofuro[3,2-b]pyridin-1(2H)-yl)methanone]", "CC50": "< 0.1"},
      {"compound": "C[C@@H]1C[C@@H]2Oc3cc(C(F)(F)F)ccc3[C@@H]2N(C(=O)c2cc3c(cc2F)nc(N)c2cncn23)C1", "note": "[Ff-251, (4-amino-7-fluoroimidazo[1,5-a]quinoxalin-8-yl)((3R,4aS,9bS)-3-methyl-7-(trifluoromethyl)-3,4,4a,9b-tetrahydrobenzofuro[3,2-b]pyridin-1(2H)-yl)methanone]", "CC50": "< 0.1"},
      {"compound": "CN(C(=O)c1cc2c(cc1F)nc(N)c1cncn12)[C@H]1c2ccc(C(F)(F)F)cc2[C@@H]2C[C@@H]21", "note": "[Ff-253, 4-amino-7-fluoro-N-methyl-N-((1aR,6R,6aS)-3-(trifluoromethyl)-1,1a,6,6a-tetrahydrocyclopropa[a]inden-6-yl)imidazo[1,5-a]quinoxaline-8-carboxamide]", "CC50": "0.1 to 1"},
      {"compound": "CN(C(=O)c1cc2c(cn1)nc(N)c1cncn12)[C@H]1c2ccc(C(F)(F)F)cc2[C@@H]2C[C@@H]21", "note": "[Ff-254, 4-amino-N-methyl-N-((1aR,6R,6aS)-3-(trifluoromethyl)-1,1a,6,6a-tetrahydrocyclopropa[a]inden-6-yl)imidazo[1,5-a]pyrido[3,4-e]pyrazine-8-carboxamide]", "CC50": "0.1 to 1"},
      {"compound": "CN(C(=O)c1cc2c(cc1F)nc(N)c1cncn12)[C@H]1c2ccc(C(F)(F)F)cc2[C@H]2C[C@H]21", "note": "[Ff-255, 4-amino-7-fluoro-N-methyl-N-((1aS,6R,6aR)-3-(trifluoromethyl)-1,1a,6,6a-tetrahydrocyclopropa[a]inden-6-yl)imidazo[1,5-a]quinoxaline-8-carboxamide]", "CC50": "0.1 to 1"},
      {"compound": "CN(C(=O)c1cc2c(cn1)nc(N)c1cncn12)[C@H]1c2ccc(C(F)(F)F)cc2[C@H]2C[C@H]21", "note": "[Ff-256, 4-amino-N-methyl-N-((1aS,6R,6aR)-3-(trifluoromethyl)-1,1a,6,6a-tetrahydrocyclopropa[a]inden-6-yl)imidazo[1,5-a]pyrido[3,4-e]pyrazine-8-carboxamide]", "CC50": "0.1 to 1"},
      {"compound": "Nc1nc2cnc(C(=O)N3CCC[C@@H]4Oc5cc(C(F)(F)F)c(Cl)cc5[C@@H]43)cc2n2cncc12", "note": "[Ff-259, (4-aminoimidazo[1,5-a]pyrido[3,4-e]pyrazin-8-yl)((4aS,9bS)-8-chloro-7-(trifluoromethyl)-3,4,4a,9b-tetrahydrobenzofuro[3,2-b]pyridin-1(2H)-yl)methanone]", "CC50": "< 0.1"},
      {"compound": "Nc1nc2cc(F)c(C(=O)N3CCC[C@@H]4Oc5cc(Cl)ccc5[C@@H]43)cc2n2cncc12", "note": "[Ff-260, (4-amino-7-fluoroimidazo[1,5-a]quinoxalin-8-yl)((4aS,9bS)-7-chloro-3,4,4a,9b-tetrahydrobenzofuro[3,2-b]pyridin-1(2H)-yl)methanone]", "CC50": "< 0.1"},
      {"compound": "C[C@@H]1C[C@@H]2Oc3cc(C(F)(F)F)c(F)cc3[C@@H]2N(C(=O)c2cc3c(cn2)nc(N)c2cncn23)C1", "note": "[Ff-261, (4-aminoimidazo[1,5-a]pyrido[3,4-e]pyrazin-8-yl)((3R,4aS,9bS)-8-fluoro-3-methyl-7-(trifluoromethyl)-3,4,4a,9b-tetrahydrobenzofuro[3,2-b]pyridin-1(2H)-yl)methanone]", "CC50": "< 0.1"},
      {"compound": "Nc1nc2ccc(C(=O)N(Cc3ccc(OC(F)F)cc3F)C34CC(C3)C4)cc2n2cncc12", "note": "[Ff-264, 4-amino-N-(bicyclo[1.1.1]pentan-1-yl)-N-(4-(difluoromethoxy)-2-fluorobenzyl)imidazo[1,5-a]quinoxaline-8-carboxamide]", "CC50": "0.1 to 1"},
      {"compound": "Nc1nc2cc(F)c(C(=O)N(Cc3ccc(OC(F)F)cc3F)C34CC(C3)C4)cc2n2cncc12", "note": "[Ff-265, 4-amino-N-(bicyclo[1.1.1]pentan-1-yl)-N-(4-(difluoromethoxy)-2-fluorobenzyl)-7-fluoroimidazo[1,5-a]quinoxaline-8-carboxamide]", "CC50": "< 0.1"},
      {"compound": "CN(C(=O)c1ccc2nc(N)c3cncn3c2c1)C1CCc2nc(C(F)(F)F)ccc21", "note": "(stereo not shown) [Ff-266, 4-amino-N-methyl-N-(2-(trifluoromethyl)-6,7-dihydro-5H-cyclopenta[b]pyridin-5-yl)imidazo[1,5-a]quinoxaline-8-carboxamide]", "CC50": "0.1 to 1"},
      {"compound": "Nc1nc2ccc(C(=O)N(Cc3ccc(C(F)(F)F)cn3)C34COC(C3)C4)cc2n2cncc12", "note": "[Ff-267, 4-amino-N-(2-oxabicyclo[2.1.1]hexan-4-yl)-N-((5-(trifluoromethyl)pyridin-2-yl)methyl)imidazo[1,5-a]quinoxaline-8-carboxamide]", "CC50": "0.1 to 1"},
      {"compound": "Nc1nc2cc(F)c(C(=O)N(Cc3ccc(C(F)(F)F)cn3)C34COC(C3)C4)cc2n2cncc12", "note": "[Ff-268, 4-amino-N-(2-oxabicyclo[2.1.1]hexan-4-yl)-7-fluoro-N-((5-(trifluoromethyl)pyridin-2-yl)methyl)imidazo[1,5-a]quinoxaline-8-carboxamide]", "CC50": "< 0.1"},
      {"compound": "CN(C(=O)c1cc2c(cc1F)nc(N)c1cncn12)[C@@H]1COc2cc(C#N)ccc21", "note": "[Ff-269, (S)-4-amino-N-(6-cyano-2,3-dihydrobenzofuran-3-yl)-7-fluoro-N-methylimidazo[1,5-a]quinoxaline-8-carboxamide]", "CC50": "< 0.1"},
      {"compound": "CC1(N(Cc2ccc(C(F)(F)F)cc2F)C(=O)c2ccc3nc(N)c4cncn4c3c2)COC1", "note": "[Ff-270, 4-amino-N-(2-fluoro-4-(trifluoromethyl)benzyl)-N-(3-methyloxetan-3-yl)imidazo[1,5-a]quinoxaline-8-carboxamide]", "CC50": "0.1 to 1"},
      {"compound": "COc1ccc2c(n1)CCC2N(C)C(=O)c1cc2c(cc1F)nc(N)c1cncn12", "note": "(stereo not shown) [Ff-271, 4-amino-7-fluoro-N-(2-methoxy-6,7-dihydro-5H-cyclopenta[b]pyridin-5-yl)-N-methylimidazo[1,5-a]quinoxaline-8-carboxamide]", "CC50": "0.1 to 1"},
      {"compound": "Nc1nc2cc(F)c(C(=O)N(Cc3ccc(C(F)(F)F)cc3F)C34COC(C3)C4)cc2n2cncc12", "note": "[Ff-272, 4-amino-N-(2-oxabicyclo[2.1.1]hexan-4-yl)-7-fluoro-N-(2-fluoro-4-(trifluoromethyl)benzyl)imidazo[1,5-a]quinoxaline-8-carboxamide]", "CC50": "< 0.1"},
      {"compound": "CO[C@@H]1COCC[C@H]1N(Cc1ccc(C(F)(F)F)cc1F)C(=O)c1cc2c(cc1F)nc(N)c1cncn12", "note": "[Ff-273, 4-amino-7-fluoro-N-(2-fluoro-4-(trifluoromethyl)benzyl)-N-((3S,4R)-3-methoxytetrahydro-2H-pyran-4-yl)imidazo[1,5-a]quinoxaline-8-carboxamide]", "CC50": "< 0.1"},
      {"compound": "CO[C@H]1COCC[C@H]1N(Cc1ccc(C(F)(F)F)cc1F)C(=O)c1cc2c(cc1F)nc(N)c1cncn12", "note": "[Ff-274, 4-amino-7-fluoro-N-(2-fluoro-4-(trifluoromethyl)benzyl)-N-((3R,4R)-3-methoxytetrahydro-2H-pyran-4-yl)imidazo[1,5-a]quinoxaline-8-carboxamide]", "CC50": "< 0.1"}
    ]}
  ]
}
